Starred links: 1 amine or outer side, 2 acyl side, 3 side chain; linkers in the order of their positions; H or OH if unused. Non-standard residues stand in square brackets, D forms with d. Residues, ends and D or L forms follow the SMILES beside them. Groups on a side chain read outwards from the residue. *: point of attachment. C20 diacid = O=C(O)CCCCCCCCCCCCCCCCCCC(=O)*; αMePhe(2-F) = C[C@](N)(Cc1ccccc1F)C(=O)O; γGlu = O=C(O)[C@H](CCC(=O)[*:2])N[*:1]; AEEA = NCCOCCOCC(=O)O; Aib = CC(C)(N)C(=O)O
Legend:
Format in all cases: cell-based
GLP-1R = target: T1, GLP-1R (Homo sapiens, UniProt P43220); test: In vitro cell activity, cAMP production in HEK293 cells expressing GLP-1R; conditions: HEK293-GLP-1R cells, cAMP; read-out: GLP-1R (EC50)
T1 construct: expressed in transfected cells; host or cells: HEK293 (HEK293-GLP-1R)
Summary of the method: (§1)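 cAMP output read as 665/620 nm HTRF ratio after adding cAMP-d2 plus anti-cAMP cryptate and incubating 1 h at room temperature in the dark or overnight at 4 °C. Cells: HEK293 expressing human GLP-1R or GCGR, plated from a 4×10^5 cells/mL suspension. Four-parameter fit gives EC50.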

GCGR = target: T2, GCGR (Homo sapiens, UniProt P47871); test: In vitro cell activity, cAMP production in HEK293 cells expressing GCGR; conditions: HEK293-GCGR cells, cAMP; read-out: GCGR (EC50)
T2 construct: expressed in transfected cells; host or cells: HEK293 (HEK293-GCGR)
Summary of the method: as §1

GIPR = target: T3, GIPR (Homo sapiens, UniProt P48546); test: In vitro cell activity, cAMP production in HEK293 cells expressing GIPR; conditions: HEK293-GIPR cells, cAMP; read-out: GIPR (EC50)
T3 construct: expressed in transfected cells; host or cells: HEK293 (HEK293-GIPR)
T3 sequence (P48546 22-466): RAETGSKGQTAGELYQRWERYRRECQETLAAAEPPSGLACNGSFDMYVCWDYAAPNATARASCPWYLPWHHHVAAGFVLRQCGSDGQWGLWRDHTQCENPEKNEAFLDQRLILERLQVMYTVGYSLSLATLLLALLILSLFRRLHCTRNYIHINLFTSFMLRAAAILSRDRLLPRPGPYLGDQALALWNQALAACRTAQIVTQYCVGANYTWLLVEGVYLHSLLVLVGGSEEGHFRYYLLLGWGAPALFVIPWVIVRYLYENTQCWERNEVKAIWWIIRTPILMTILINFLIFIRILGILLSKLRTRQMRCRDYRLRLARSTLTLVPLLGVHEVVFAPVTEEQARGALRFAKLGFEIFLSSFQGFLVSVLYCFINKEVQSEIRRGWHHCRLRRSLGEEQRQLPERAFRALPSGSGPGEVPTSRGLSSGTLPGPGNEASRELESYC
Summary of the method: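 HEK293 cells expressing human GIPR, thawed and diluted to 4×10^5 cells/mL, are stimulated with test compound. cAMP is measured by HTRF competition between cAMP-d2 and anti-cAMP cryptate. EC50 comes from a four-parameter nonlinear fit of signal ratio against concentration.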

T1 sequence (P43220 24-463, species assumed): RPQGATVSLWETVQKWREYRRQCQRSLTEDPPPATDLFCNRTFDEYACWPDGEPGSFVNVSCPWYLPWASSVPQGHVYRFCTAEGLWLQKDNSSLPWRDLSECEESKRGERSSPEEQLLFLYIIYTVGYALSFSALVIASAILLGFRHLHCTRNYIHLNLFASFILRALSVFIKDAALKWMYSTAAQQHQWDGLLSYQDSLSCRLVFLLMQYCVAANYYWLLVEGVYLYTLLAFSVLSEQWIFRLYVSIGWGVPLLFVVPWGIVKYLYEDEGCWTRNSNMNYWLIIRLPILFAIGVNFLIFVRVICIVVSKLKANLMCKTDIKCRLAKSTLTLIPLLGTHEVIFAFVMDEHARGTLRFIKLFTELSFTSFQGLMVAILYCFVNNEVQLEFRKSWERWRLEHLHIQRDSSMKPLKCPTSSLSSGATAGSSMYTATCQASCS
T2 sequence (P47871 26-477, species assumed): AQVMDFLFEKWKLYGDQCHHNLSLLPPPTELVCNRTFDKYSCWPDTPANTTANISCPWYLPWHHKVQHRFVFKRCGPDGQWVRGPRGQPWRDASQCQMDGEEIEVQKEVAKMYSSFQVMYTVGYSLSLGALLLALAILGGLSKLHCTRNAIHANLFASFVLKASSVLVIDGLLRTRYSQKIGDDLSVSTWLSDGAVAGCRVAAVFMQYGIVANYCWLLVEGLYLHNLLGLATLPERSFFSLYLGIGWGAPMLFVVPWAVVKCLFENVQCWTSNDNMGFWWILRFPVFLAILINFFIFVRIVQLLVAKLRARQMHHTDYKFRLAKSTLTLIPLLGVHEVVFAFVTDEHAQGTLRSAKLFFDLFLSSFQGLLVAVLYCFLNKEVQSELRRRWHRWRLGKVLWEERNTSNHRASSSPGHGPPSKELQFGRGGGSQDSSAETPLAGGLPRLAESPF

SMILES: CC[C@H](C)[C@H](NC(=O)[C@H](Cc1ccccc1)NC(=O)[C@H](C)NC(=O)C(C)(C)NC(=O)[C@H](CCC(N)=O)NC(=O)[C@H](CCCNC(=N)N)NC(=O)[C@@H](NC(=O)[C@H](CCCCN)NC(=O)[C@H](CC(=O)O)NC(=O)[C@H](CCCCNC(=O)COCCOCCNC(=O)CC[C@H](NC(=O)CCCCCCCCCCCCCCCCC(=O)O)C(=O)O)NC(=O)[C@H](CC(C)C)NC(=O)[C@@H](NC(=O)[C@H](CO)NC(=O)[C@H](Cc1ccc(O)cc1)NC(=O)[C@H](CC(=O)O)NC(=O)[C@H](CO)NC(=O)[C@@H](NC(=O)[C@](C)(Cc1ccccc1F)NC(=O)[C@@H](NC(=O)CNC(=O)[C@H](CCC(N)=O)NC(=O)C(C)(C)NC(=O)[C@@H](N)Cc1ccc(O)cc1)[C@@H](C)O)[C@@H](C)O)[C@@H](C)CC)[C@@H](C)CC)C(=O)N[C@@H](CCC(=O)O)C(=O)N[C@@H](Cc1ccc(O)cc1)C(=O)N[C@@H](CC(C)C)C(=O)N[C@@H](CC(C)C)C(=O)N[C@@H](CCC(=O)O)C(=O)NCC(=O)NCC(=O)N1CCC[C@H]1C(=O)N[C@@H](CO)C(=O)N[C@@H](CO)C(=O)NCC(=O)N[C@@H](C)C(=O)N1CCC[C@H]1C(=O)N1CCC[C@H]1C(=O)N1CCC[C@H]1C(=O)N[C@@H](CO)C(N)=O [HEC-PT144]
- EC50 (GLP-1R): 0.173 nM
- EC50 (GCGR): 0.0366 nM
- EC50 (GIPR): 0.0221 nM

SMILES: CC[C@H](C)[C@H](NC(=O)[C@H](CCC(=O)O)NC(=O)[C@H](CC(=O)O)NC(=O)[C@H](CC(C)C)NC(=O)[C@H](CC(C)C)NC(=O)[C@@H](NC(=O)[C@H](CO)NC(=O)[C@H](Cc1ccc(O)cc1)NC(=O)[C@H](CC(=O)O)NC(=O)[C@H](CO)NC(=O)[C@@H](NC(=O)[C@](C)(Cc1ccccc1F)NC(=O)[C@@H](NC(=O)CNC(=O)[C@H](CCC(N)=O)NC(=O)C(C)(C)NC(=O)[C@@H](N)Cc1ccc(O)cc1)[C@@H](C)O)[C@@H](C)O)[C@@H](C)CC)C(=O)N[C@@H](C)C(=O)N[C@@H](CCC(N)=O)C(=O)N[C@@H](CCCCNC(=O)COCCOCCNC(=O)COCCOCCNC(=O)CC[C@H](NC(=O)CCCCCCCCCCCCCCCCCCC(=O)O)C(=O)O)C(=O)N[C@@H](C)C(=O)N[C@@H](Cc1ccccc1)C(=O)N[C@H](C(=O)N[C@@H](CCC(N)=O)C(=O)N[C@@H](Cc1c[nH]c2ccccc12)C(=O)N[C@@H](CC(C)C)C(=O)N[C@H](C(=O)N[C@@H](C)C(=O)NCC(=O)NCC(=O)N1CCC[C@H]1C(=O)N[C@@H](CO)C(=O)N[C@@H](CO)C(=O)NCC(=O)N[C@@H](C)C(=O)N1CCC[C@H]1C(=O)N1CCC[C@H]1C(=O)N1CCC[C@H]1C(=O)N[C@@H](CO)C(=O)O)[C@@H](C)CC)C(C)C [HEC-PT100] (H-Y[Aib]QGT[αMePhe(2-F)]TSDYSILLDEIAQK([AEEA-AEEA-γGlu-C20 diacid])AFVQWLIAGGPSSGAPPPS-OH)
- EC50 (GLP-1R): 0.0978 nM
- EC50 (GCGR): 9.58 nM
- EC50 (GIPR): 0.0518 nM

SMILES: CC[C@H](C)[C@H](NC(=O)[C@H](CO)NC(=O)[C@H](Cc1ccc(O)cc1)NC(=O)[C@H](CC(=O)O)NC(=O)[C@H](CO)NC(=O)[C@@H](NC(=O)[C@](C)(Cc1ccccc1F)NC(=O)[C@@H](NC(=O)CNC(=O)[C@H](Cc1c[nH]cn1)NC(=O)C(C)(C)NC(=O)[C@@H](N)Cc1ccc(O)cc1)[C@@H](C)O)[C@@H](C)O)C(=O)N[C@@H](CC(C)C)C(=O)N[C@@H](CC(C)C)C(=O)N[C@@H](CC(=O)O)C(=O)N[C@@H](CCC(=O)O)C(=O)N[C@@H](CCCCNC(=O)COCCOCCNC(=O)CC[C@H](NC(=O)CCCCCCCCCCCCCCCCC(=O)O)C(=O)O)C(=O)N[C@@H](CCCNC(=N)N)C(=O)N[C@@H](CCC(N)=O)C(=O)NC(C)(C)C(=O)N[C@@H](CCC(=O)O)C(=O)N[C@@H](Cc1ccccc1)C(=O)N[C@H](C(=O)N[C@@H](CCC(=O)O)C(=O)N[C@@H](Cc1c[nH]c2ccccc12)C(=O)N[C@@H](CC(C)C)C(=O)N[C@@H](CC(C)C)C(=O)N[C@@H](C)C(=O)NCC(=O)NCC(=O)N1CCC[C@H]1C(=O)N[C@@H](CO)C(=O)N[C@@H](CO)C(=O)NCC(=O)N[C@@H](C)C(=O)N1CCC[C@H]1C(=O)N1CCC[C@H]1C(=O)N1CCC[C@H]1C(=O)N[C@@H](CO)C(N)=O)[C@@H](C)CC [HEC-PT109]
- EC50 (GLP-1R): 0.14 nM
- EC50 (GCGR): 0.707 nM
- EC50 (GIPR): 0.052 nM
